Data as given in US4742057A, “Antiallergic thiazole compounds” (Fujisawa Pharmaceutical Co., Ltd., priority 1985, dated 1988).

Tested on: anaphylactic asthma in guinea pigs
Test: Antagonistic action on anaphylactic asthma in guinea pigs (prophylactic effect, survival after antigen spraying)
Format: in vivo, guinea pigs (male Hartley-strain)
Details: Cavia porcellus; oral, 30 min before egg-white albumin aerosol; survival for not less than 2 hours; passively sensitized guinea pigs

| SMILES | ED50 |
| --- | --- |
| CC(=O)Nc1nc(CN2CCC(c3c[nH]c4ccccc34)CC2)cs1 [Compound A, 2-Acetylamino-4-[4-(3-indolyl)piperidinomethyl]thiazole] | 0.95 mg/kg |
| CS(=O)(=O)Nc1nc(CN2CCC(c3c[nH]c4ccccc34)CC2)cs1 [Compound B, 4-[4-(3-Indolyl)piperidinomethyl]-2-mesylaminothiazole] | 0.086 mg/kg |
| CS(=O)(=O)Nc1nc(CCN2CCC(c3c[nH]c4ccccc34)CC2)cs1 [Compound C, 4-[2-[4-(3-Indolyl)piperidino]ethyl]2-mesylaminothiazole] | 0.02 mg/kg |
| CCC(=O)Nc1nc(CN2CCC(c3c[nH]c4ccccc34)CC2)cs1 [Compound D, 4-[4-(3-Indolyl)piperidinomethyl]-2-propionylaminothiazole] | 0.92 mg/kg |
| Nc1nc(CCCN2CCC(c3c[nH]c4ccccc34)CC2)cs1 [Compound F, 4-[3-[4-(3-Indolyl)piperidino]propyl]-2-aminothiazole] | 0.3 mg/kg |
| CS(=O)(=O)Nc1nc(CCCN2CCC(c3c[nH]c4ccccc34)CC2)cs1 [Compound G, 4-[3-[4-(3-Indolyl)piperidino]propyl]-2-mesylaminothiazole] | 0.03 mg/kg |
